Laboratory results reported in patent US10995091B2 (Proximagen, LLC, priority 2010, dated 2021).

The compounds below were run against T1, Human CXCR4 transfected HEK293 cells (Homo sapiens, UniProt P61073) (assay: CXCR4 functional calcium assay (calcium flux FLIPR, antagonism of SDF1 response)). Conditions: CXCR4 functional activity, antagonism of SDF1 (EC50 concentration), read-out: CXCR4 fKi.
T1 construct: expressed in transfected cells; host or cells: HEK293
Type: cell-based
Method: The functional activity of test compounds was routinely tested by measuring the ability of compounds to antagonize CXCR4 activity in a dose dependent manner, using a calcium flux Fluorescent Imaging Plate Reader FLIPR assay.
Human CXCR4 transfected HEK293 cells were cultured in Dulbecco's modified Eagles medium containing 4.5 g/L glucose, L-glutamine, pyruvate, 50 µg/mL Geneticin and 250 µg/mL hygromycin B and maintained at 37° C. in a humidified, 5% CO2 controlled atmosphere. Subcultivations were performed every 2-3 d.
At confluence the cells were lifted using Ca^2+ and Mg^2+ free PBS/0.02% (w/v) EDTA, spun at 1000 rpm for 3 min and resuspended at 2.5×10^5 cells/mL. Cells were plated into a 384 well, poly-d-lysine coated, black with clear bottomed plate (Becton Dickinson) at 7500 cells/well. The plates were incubated overnight at 37° C. under 5% CO2. On the day of the experiment the cells were washed with incubation Buffer (HBSS containing 2.5 mM probenecid, 0.1% w/v BSA and 10 mM HEPES, pH 7.4 at 37° C.). After washing, the cells were loaded with Fluo-4 AM dye (Molecular probes) at 2 µM containing 0.48 µg/mL pluronic acid for 60 min at 37° C. under 5% CO2. After thorough washing with incubation buffer the cells were preincubated for 10 min at 37° C. before use.
A combined agonist/antagonist protocol was used to measure changes in intracellular calcium concentration. Compound (antagonist) was added to the cell plate using a Fluorometric Imaging Plate Reader (FLIPR) (Molecular Devices, Sunnyvale, Calif., USA). Basal fluorescence was recorded every second for 10 seconds prior to compound addition (10 μl) and fluorescence recorded every second for 1 min then every 6 seconds for a further 1 min. SDF1[…] (EC50 concentration) was then added using the FLIPR and fluorescence recorded as described above. Curve-fitting and parameter estimation were carried out using GraphPad Prism 4.0 (GraphPad Software Inc., San Diego, Calif.).

T1 sequence (P61073 whole entry): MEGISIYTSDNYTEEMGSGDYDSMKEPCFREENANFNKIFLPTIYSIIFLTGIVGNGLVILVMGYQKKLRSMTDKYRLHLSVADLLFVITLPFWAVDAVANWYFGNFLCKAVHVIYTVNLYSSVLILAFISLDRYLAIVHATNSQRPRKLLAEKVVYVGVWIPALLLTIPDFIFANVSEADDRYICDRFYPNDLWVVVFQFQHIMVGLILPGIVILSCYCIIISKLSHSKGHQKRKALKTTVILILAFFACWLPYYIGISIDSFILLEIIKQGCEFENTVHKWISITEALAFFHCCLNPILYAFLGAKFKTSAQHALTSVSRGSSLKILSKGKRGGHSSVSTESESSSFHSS

Compound | Ki [nM]
CCCN1CCC(N2CCCN(c3cccc(C(=O)NCC4CC4)n3)CC2)CC1 [Example 61, N-(Cyclopropylmethyl)-6-[4-(1-propylpiperidin-4-yl)-1,4-diazepan-1-yl]pyridine-2-carboxamide] | 100 to 500
O=C(NCC1CC1)c1cccc(N2CCCN(C3CCN(C4CC4)CC3)CC2)n1 [Example 62, N-(Cyclopropylmethyl)-6-[4-(1-cyclopropylpiperidin-4-yl)-1,4-diazepan-1-yl]pyridine-2-carboxamide] | 500 to 1000
CC(C)N1CCC(N2CCCN(c3cccc(C(=O)NCC4CC4)n3)CC2)CC1 [Example 63, N-(Cyclopropylmethyl)-6-{4-[1-(propan-2-yl)piperidin-4-yl]-1,4-diazepan-1-yl}pyridine-2-carboxamide] | < 20
CC(C)(C)N1CCC(N2CCCN(c3cccc(C(=O)NCC4CC4)n3)CC2)CC1 [Example 64, 6-[4-(1-tert-Butylpiperidin-4-yl)-1,4-diazepan-1-yl]-N-(cyclopropylmethyl)pyridine-2-carboxamide] | 20 to 100
CCC(C)N1CCC(N2CCCN(c3cccc(C(=O)NCC4CC4)n3)CC2)CC1 (stereo not drawn) [Example 65, 6-{4-[1-(Butan-2-yl)piperidin-4-yl]-1,4-diazepan-1-yl}-N-(cyclopropylmethyl)pyridine-2-carboxamide] | < 20
CCC(CC)N1CCC(N2CCCN(c3cccc(C(=O)NCC4CC4)n3)CC2)CC1 [Example 66, N-(Cyclopropylmethyl)-6-{4-[1-(pentan-3-yl)piperidin-4-yl]-1,4-diazepan-1-yl}pyridine-2-carboxamide] | 20 to 100
CC(CF)N1CCC(N2CCCN(c3cccc(C(=O)NCC4CC4)n3)CC2)CC1 (stereo not drawn) [Example 67, N-(Cyclopropylmethyl)-6-{4-[1-(1-fluoropropan-2-yl)piperidin-4-yl]-1,4-diazepan-1-yl}pyridine-2-carboxamide] | 500 to 1000
CC(C(F)F)N1CCC(N2CCCN(c3cccc(C(=O)NCC4CC4)n3)CC2)CC1 (stereo not drawn) [Example 68, N-(Cyclopropylmethyl)-6-{4-[1-(1,1-difluoropropan-2-yl)piperidin-4-yl]-1,4-diazepan-1-yl}pyridine-2-carboxamide] | 100 to 500
C[C@H](N1CCC(N2CCCN(c3cccc(C(=O)NCC4CC4)n3)CC2)CC1)C(F)(F)F [Example 69, N-(Cyclopropylmethyl)-6-(4-{1-[(2S)-1,1,1-trifluoropropan-2-yl]piperidin-4-yl}-1,4-diazepan-1-yl)pyridine-2-carboxamide] | 100 to 500
CC(CC(F)(F)F)N1CCC(N2CCCN(c3cccc(C(=O)NCC4CC4)n3)CC2)CC1 (stereo not drawn) [Example 70, N-(Cyclopropylmethyl)-6-{4-[1-(4,4,4-trifluorobutan-2-yl)piperidin-4-yl]-1,4-diazepan-1-yl}pyridine-2-carboxamide] | 20 to 100
COCCN1CCC(N2CCCN(c3cccc(C(=O)NCC4CC4)n3)CC2)CC1 [Example 71, N-(Cyclopropylmethyl)-6-{4-[1-(2-methoxyethyl)piperidin-4-yl]-1,4-diazepan-1-yl}pyridine-2-carboxamide] | 500 to 1000
O=C(NCC1CC1)c1cccc(N2CCCN(C3CCN(C4CCCC4)CC3)CC2)n1 [Example 72, 6-[4-(1-Cyclopentylpiperidin-4-yl)-1,4-diazepan-1-yl]-N-(cyclopropylmethyl)pyridine-2-carboxamide] | 20 to 100
O=C(NCC1CC1)c1cccc(N2CCCN(C3CCN(C4CCCC4F)CC3)CC2)n1 (stereo not drawn) [Example 73, N-(Cyclopropylmethyl)-6-{4-[1-(2-fluorocyclopentyl)piperidin-4-yl]-1,4-diazepan-1-yl}pyridine-2-carboxamide] | 20 to 100
C[C@H](c1ccccc1)N1CCC(N2CCCN(c3cccc(C(=O)NCC4CC4)n3)CC2)CC1 [Example 74, N-(Cyclopropylmethyl)-6-(4-{1-[(1R)-1-phenylethyl]piperidin-4-yl}-1,4-diazepan-1-yl)pyridine-2-carboxamide] | 100 to 500
C[C@H](c1ccc(F)cc1)N1CCC(N2CCCN(c3cccc(C(=O)NCC4CC4)n3)CC2)CC1 [Example 75, N-(Cyclopropylmethyl)-6-(4-{1-[(1R)-1-(4-fluorophenyl)ethyl]piperidin-4-yl}-1,4-diazepan-1-yl)pyridine-2-carboxamide] | 100 to 500
O=C(NCC1CC1)c1cccc(N2CCCN(C3CCN([C@@H]4CCc5ccccc54)CC3)CC2)n1 [Example 76, N-(Cyclopropylmethyl)-6-(4-{1-[(1R)-2,3-dihydro-1H-inden-1-yl]piperidin-4-yl}-1,4-diazepan-1-yl)pyridine-2-carboxamide] | 20 to 100
O=C(NCC1CC1)c1cccc(N2CCCN(C3CCN([C@H]4CCc5ccccc54)CC3)CC2)n1 [Example 77, N-(Cyclopropylmethyl)-6-(4-{1-[(1S)-2,3-dihydro-1H-inden-1-yl]piperidin-4-yl}-1,4-diazepan-1-yl)pyridine-2-carboxamide] | 20 to 100
CC[C@@H](C)N1CCC(N2CCCN(c3cccc(C(=O)Nc4ccncc4)n3)CC2)CC1 [Example 78, 6-(4-{1-[(2R)-Butan-2-yl]piperidin-4-yl}-1,4-diazepan-1-yl)-N-(pyridine-4-yl)pyridine-2-carboxamide] | < 20
CC[C@H](C)N1CCC(N2CCCN(c3cccc(C(=O)Nc4ccncc4)n3)CC2)CC1 [Example 79, 6-(4-{1-[(2S)-Butan-2-yl]piperidin-4-yl}-1,4-diazepan-1-yl)-N-(pyridine-4-yl)pyridine-2-carboxamide] | < 20
CC(C)(C)N1CCC(N2CCCN(c3cccc(C(=O)Nc4ccncc4)n3)CC2)CC1 [Example 80, 6-[4-(1-tert-Butylpiperidin-4-yl)-1,4-diazepan-1-yl]-N-(pyridine-4-yl)pyridine-2-carboxamide] | < 20
C[C@@H](N1CCC(N2CCCN(c3cccc(C(=O)Nc4ccncc4)n3)CC2)CC1)C(F)(F)F [Example 81, N-(Pyridin-4-yl)-6-(4-{1-[(2R)-1,1,1-trifluoropropan-2-yl]piperidin-4-yl}-1,4-diazepan-1-yl)pyridine-2-carboxamide] | < 20
C[C@H](N1CCC(N2CCCN(c3cccc(C(=O)Nc4ccncc4)n3)CC2)CC1)C(F)(F)F [Example 82, N-(Pyridin-4-yl)-6-(4-{1-[(2S)-1,1,1-trifluoropropan-2-yl]piperidin-4-yl}-1,4-diazepan-1-yl)pyridine-2-carboxamide] | < 20
O=C(Nc1ccncc1)c1cccc(N2CCCN(C3CCN(C4CCCC4)CC3)CC2)n1 [Example 83, 6-[4-(1-Cyclopentylpiperidin-4-yl)-1,4-diazepan-1-yl]-N-(pyridine-4-yl)pyridine-2-carboxamide] | < 20
Cc1cc(NC(=O)c2cccc(N3CCCN(C4CCN(Cc5ccccc5Cl)CC4)CC3)n2)ccn1 [Example 84, 6-(4-{1-[(2-Chlorophenyl)methyl]piperidin-4-yl}-1,4-diazepan-1-yl)-N-(2-methylpyridine-4-yl)pyridine-2-carboxamide] | < 20
Cc1cc(NC(=O)c2cccc(N3CCCN(C4CCN(Cc5ccccc5Cl)CC4)CC3)n2)cc(C)n1 [Example 85, 6-(4-{1-[(2-Chlorophenyl)methyl]piperidin-4-yl}-1,4-diazepan-1-yl)-N-(2,6-dimethylpyridin-4-yl)pyridine-2-carboxamide] | 20 to 100
Cc1cc(NC(=O)c2cccc(N3CCCN(C4CCN(C(C)C)CC4)CC3)n2)ccn1 [Example 86, N-(2-Methylpyridin-4-yl)-6-{4-[1-(propan-2-yl)piperidin-4-yl]-1,4-diazepan-1-yl}pyridine-2-carboxamide] | < 20
Cc1cc(NC(=O)c2cccc(N3CCCN(C4CCN(C(C)C)CC4)CC3)n2)cc(C)n1 [Example 87, N-(2,6-Dimethylpyridin-4-yl)-6-{4-[1-(propan-2-yl)piperidin-4-yl]-1,4-diazepan-1-yl}pyridine-2-carboxamide] | < 20
Cc1cnccc1NC(=O)c1cccc(N2CCCN(C3CCN(C(C)C)CC3)CC2)n1 [Example 88, N-(3-Methylpyridin-4-yl)-6-{4-[1-(propan-2-yl)piperidin-4-yl]-1,4-diazepan-1-yl}pyridine-2-carboxamide] | < 20
C[C@H](N1CCC(N2CCCN(c3cccc(C(=O)NCc4cccnc4)n3)CC2)CC1)C(F)(F)F [Example 89, N-(Pyridin-3-ylmethyl)-6-(4-{1-[(2S)-1,1,1-trifluoropropan-2-yl]piperidin-4-yl}-1,4-diazepan-1-yl)pyridine-2-carboxamide] | 20 to 100
CC(CC(F)(F)F)N1CCC(N2CCCN(c3cccc(C(=O)NCc4cccnc4)n3)CC2)CC1 (stereo not drawn) [Example 90, N-(Pyridin-3-ylmethyl)-6-{4-[1-(4,4,4-trifluorobutan-2-yl)piperidin-4-yl]-1,4-diazepan-1-yl}pyridine-2-carboxamide] | 20 to 100
